Some results are limits rather than exact numbers.

In assay [1] the target is T1, Muscle, skeletal receptor tyrosine-protein kinase (Homo sapiens) (UniProt O15146).
T1 sequence (whole entry): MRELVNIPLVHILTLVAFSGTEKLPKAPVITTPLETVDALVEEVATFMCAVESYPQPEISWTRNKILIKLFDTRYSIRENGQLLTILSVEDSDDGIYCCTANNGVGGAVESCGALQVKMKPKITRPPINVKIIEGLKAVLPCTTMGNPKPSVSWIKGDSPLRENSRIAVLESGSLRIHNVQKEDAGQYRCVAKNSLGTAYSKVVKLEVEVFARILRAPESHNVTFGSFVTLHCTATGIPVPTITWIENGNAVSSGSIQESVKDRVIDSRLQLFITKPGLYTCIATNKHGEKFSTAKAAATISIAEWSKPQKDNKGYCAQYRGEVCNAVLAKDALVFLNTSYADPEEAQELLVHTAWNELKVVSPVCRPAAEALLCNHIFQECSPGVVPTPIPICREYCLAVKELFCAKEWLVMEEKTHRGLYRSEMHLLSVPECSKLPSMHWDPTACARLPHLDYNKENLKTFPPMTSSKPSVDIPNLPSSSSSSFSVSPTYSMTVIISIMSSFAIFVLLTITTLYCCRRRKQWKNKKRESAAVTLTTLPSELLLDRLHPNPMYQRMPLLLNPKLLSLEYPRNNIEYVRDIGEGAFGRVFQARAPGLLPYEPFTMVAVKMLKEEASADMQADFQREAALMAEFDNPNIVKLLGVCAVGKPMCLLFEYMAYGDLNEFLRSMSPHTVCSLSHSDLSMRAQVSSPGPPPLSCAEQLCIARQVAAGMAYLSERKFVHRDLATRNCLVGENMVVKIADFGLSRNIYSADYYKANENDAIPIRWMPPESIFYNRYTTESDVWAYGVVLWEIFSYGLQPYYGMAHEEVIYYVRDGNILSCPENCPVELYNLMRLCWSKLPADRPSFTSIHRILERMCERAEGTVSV
As to the kind of experiment: Selectivity interaction (ProQinase) EUB0000171b MUSK.

In assay [2] the target is Serine/threonine-protein kinase N3 (Homo sapiens) (UniProt Q6P5Z2). As to the kind of experiment: Selectivity interaction (ProQinase) EUB0000171b PKN3.
In assay [3] the test system is Tyrosine-protein kinase ABL1 (Homo sapiens), P00519 [Q252H]. To be noted: at 10 µM.
The next assay concerns the target Misshapen-like kinase 1 (Homo sapiens, UniProt Q8N4C8). The note with it: at 10 µM.
In assay [4] the target is BMP-2-inducible protein kinase (Homo sapiens) (UniProt Q9NSY1). As to the kind of experiment: Selectivity interaction (Ambit KINOMEscan and KiNATiv profiling in Jurkat cells) EUB0000090b BMP2K. Type of assay: cell-based. The note with it: at 1 µM.
Assay [5] has as its target T2, Histone-lysine N-methyltransferase SETD7 (Homo sapiens) (UniProt Q8WTS6).
T2 sequence (whole entry): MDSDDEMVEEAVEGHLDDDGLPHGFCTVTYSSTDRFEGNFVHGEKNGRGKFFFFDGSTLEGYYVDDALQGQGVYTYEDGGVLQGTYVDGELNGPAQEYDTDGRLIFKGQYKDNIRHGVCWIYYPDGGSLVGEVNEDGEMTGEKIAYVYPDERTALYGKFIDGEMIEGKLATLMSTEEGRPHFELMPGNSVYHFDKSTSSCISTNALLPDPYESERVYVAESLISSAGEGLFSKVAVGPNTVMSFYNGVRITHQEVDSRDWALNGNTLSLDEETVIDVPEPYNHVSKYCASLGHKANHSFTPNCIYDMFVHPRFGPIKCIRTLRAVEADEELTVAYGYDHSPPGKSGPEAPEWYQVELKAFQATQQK
Kind of assay: Selectivity interaction (Methyltransferase screen (Scintillation proximity assays)) EUB0000255b SETD7.

In assay [6] the target is Dual specificity mitogen-activated protein kinase kinase 2 (Homo sapiens) (UniProt P36507). Kind of assay: Selectivity interaction (KinomeScan (DiscoverX)) EUB0001049a MAP2K2. To be noted: at 1 µM.
Assay [7] addresses Phosphatidylinositol 4,5-bisphosphate 3-kinase catalytic subunit alpha isoform (Homo sapiens) (UniProt P42336). As to the kind of experiment: Selectivity interaction (Kinase panel (Eurofins)) EUB0001564a PIK3CA. The note with it: at 1 µM.
Assay [8] has as its target Dual specificity protein kinase CLK2 (Homo sapiens, UniProt P49760). As to the kind of experiment: Selectivity interaction (Enzymatic assay) EUB0001550a CLK2.
Assay [9] addresses Serine/threonine-protein kinase SIK2 (Homo sapiens) (UniProt Q9H0K1). Kind of assay: Selectivity interaction (KinomeScan (DiscoverX)) EUB0000045b SIK2.
For assay [10], the target named is Death-associated protein kinase 2 (Homo sapiens) (UniProt Q9UIK4). As to the kind of experiment: Selectivity interaction (KinomeScan (DiscoverX)) EUB0000666a DAPK2. To be noted: at 10 µM.
Assay [11] has as its target Serine/threonine-protein kinase MARK2 (Homo sapiens) (UniProt Q7KZI7). Kind of assay: Selectivity interaction (Kinase panel (Invitrogen)) EUB0000639a MARK2. To be noted: at 200 nM.
Assay [12] concerns the target Ribosomal protein S6 kinase alpha-3 (Homo sapiens, UniProt P51812). As to the kind of experiment: Selectivity interaction (ActivX KiNativ screen (kinase selectivity in THP-1 cell lysates)) EUB0000639a RPS6KA3. To be noted: lysate, at 0.2 µM. Type of assay: subcellular.
Assay [13] concerns the target Death-associated protein kinase 1 (Homo sapiens, UniProt P53355). As to the kind of experiment: Selectivity interaction (KinomeScan (DiscoverX)) EUB0000229b DAPK1. The note with it: at 10 µM.
Assay [14] deals with Ephrin type-A receptor 2 (Homo sapiens) (UniProt P29317). As to the kind of experiment: Selectivity interaction (KinomeScan (DiscoverX)) EUB0000229b EPHA2. To be noted: at 10 µM.
The target of assay [15] is TRAF2 and NCK-interacting protein kinase (Homo sapiens) (UniProt Q9UKE5). Kind of assay: Selectivity interaction (ActivX KiNativ screen (ex vivo kinase selectivity in human PBMCs)) EUB0001619a TNIK. The format is cell-based. The note with it: PBMC, at 1 µM.
Assay [16] has as its target Tyrosine-protein kinase ABL1 (Homo sapiens, UniProt P00519). As to the kind of experiment: Selectivity interaction (Kinase panel (KiNativ target engagement assay in Jurkat cells)) EUB0001635a ABL1. Type of assay: cell-based. To be noted: Selectivity number of off-targets 0.0, Selectivity number of targets 233.0, Source Knowledge https://www.sciencedirect.com/science/article/pii/S2451945619300674?via%3Dihub, at 1 µM.

Chain of Serine/threonine-protein kinase SIK2 (Homo sapiens) (Q9H0K1 whole entry, looked up): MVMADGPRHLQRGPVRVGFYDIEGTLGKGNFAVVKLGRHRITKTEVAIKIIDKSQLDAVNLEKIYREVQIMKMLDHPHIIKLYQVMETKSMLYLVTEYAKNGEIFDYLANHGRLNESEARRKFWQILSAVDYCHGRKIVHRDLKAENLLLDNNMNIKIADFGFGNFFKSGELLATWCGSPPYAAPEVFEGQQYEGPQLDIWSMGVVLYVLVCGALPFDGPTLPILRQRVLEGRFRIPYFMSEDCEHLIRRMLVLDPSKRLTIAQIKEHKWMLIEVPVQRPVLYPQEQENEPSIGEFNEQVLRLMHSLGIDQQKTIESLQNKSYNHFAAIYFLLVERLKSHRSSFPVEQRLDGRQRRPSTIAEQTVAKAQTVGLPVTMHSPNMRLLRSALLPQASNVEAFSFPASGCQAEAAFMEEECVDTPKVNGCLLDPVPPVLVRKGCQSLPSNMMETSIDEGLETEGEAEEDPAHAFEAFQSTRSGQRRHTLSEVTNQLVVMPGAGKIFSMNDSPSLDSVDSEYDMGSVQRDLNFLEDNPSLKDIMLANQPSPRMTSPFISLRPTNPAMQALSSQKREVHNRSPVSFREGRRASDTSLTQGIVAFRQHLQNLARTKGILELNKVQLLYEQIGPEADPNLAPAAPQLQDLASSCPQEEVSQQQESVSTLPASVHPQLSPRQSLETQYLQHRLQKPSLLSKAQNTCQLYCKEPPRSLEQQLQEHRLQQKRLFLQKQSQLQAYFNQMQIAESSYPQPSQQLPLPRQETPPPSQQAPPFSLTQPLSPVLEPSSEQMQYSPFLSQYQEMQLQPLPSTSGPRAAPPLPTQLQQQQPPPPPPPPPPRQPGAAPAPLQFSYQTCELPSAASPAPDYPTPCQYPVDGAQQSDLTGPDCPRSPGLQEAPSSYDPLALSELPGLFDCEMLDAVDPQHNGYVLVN
Chain of Serine/threonine-protein kinase N3 (Homo sapiens) (Q6P5Z2 whole entry, looked up): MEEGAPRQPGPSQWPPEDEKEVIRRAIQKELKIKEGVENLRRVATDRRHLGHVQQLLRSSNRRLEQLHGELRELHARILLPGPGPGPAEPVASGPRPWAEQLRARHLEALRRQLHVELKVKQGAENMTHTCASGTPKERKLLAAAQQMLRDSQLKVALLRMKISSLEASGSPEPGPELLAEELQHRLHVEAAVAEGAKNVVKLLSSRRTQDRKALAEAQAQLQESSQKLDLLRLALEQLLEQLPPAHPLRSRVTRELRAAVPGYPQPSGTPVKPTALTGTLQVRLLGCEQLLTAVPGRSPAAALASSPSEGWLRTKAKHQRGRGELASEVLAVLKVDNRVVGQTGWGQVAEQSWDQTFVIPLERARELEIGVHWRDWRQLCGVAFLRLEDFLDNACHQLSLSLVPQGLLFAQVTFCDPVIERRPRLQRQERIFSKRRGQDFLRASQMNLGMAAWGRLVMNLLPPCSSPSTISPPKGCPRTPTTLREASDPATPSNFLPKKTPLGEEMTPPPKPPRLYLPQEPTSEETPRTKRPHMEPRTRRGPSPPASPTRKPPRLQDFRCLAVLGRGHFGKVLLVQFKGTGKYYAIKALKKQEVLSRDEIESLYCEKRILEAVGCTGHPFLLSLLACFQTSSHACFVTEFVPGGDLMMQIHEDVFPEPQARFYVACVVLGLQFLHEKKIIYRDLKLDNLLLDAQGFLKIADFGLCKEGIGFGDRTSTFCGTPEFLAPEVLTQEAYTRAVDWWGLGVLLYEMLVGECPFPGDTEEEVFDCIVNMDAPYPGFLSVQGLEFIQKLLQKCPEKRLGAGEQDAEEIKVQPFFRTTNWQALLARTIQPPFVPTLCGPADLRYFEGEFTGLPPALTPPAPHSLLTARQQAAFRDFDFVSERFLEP
Chain of Death-associated protein kinase 2 (Homo sapiens) (Q9UIK4 whole entry, looked up): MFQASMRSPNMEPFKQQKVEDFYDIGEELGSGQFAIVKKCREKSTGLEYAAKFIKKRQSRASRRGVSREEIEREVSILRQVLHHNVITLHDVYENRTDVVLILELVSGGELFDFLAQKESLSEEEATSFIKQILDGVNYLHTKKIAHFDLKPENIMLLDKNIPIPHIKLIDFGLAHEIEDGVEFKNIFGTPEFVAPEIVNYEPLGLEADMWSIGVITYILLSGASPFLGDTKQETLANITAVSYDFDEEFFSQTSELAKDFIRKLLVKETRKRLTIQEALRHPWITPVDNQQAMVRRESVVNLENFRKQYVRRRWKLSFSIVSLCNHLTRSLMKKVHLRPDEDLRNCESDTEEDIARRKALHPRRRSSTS
Chain of Phosphatidylinositol 4,5-bisphosphate 3-kinase catalytic subunit alpha isoform (Homo sapiens) (P42336 whole entry, canonical isoform): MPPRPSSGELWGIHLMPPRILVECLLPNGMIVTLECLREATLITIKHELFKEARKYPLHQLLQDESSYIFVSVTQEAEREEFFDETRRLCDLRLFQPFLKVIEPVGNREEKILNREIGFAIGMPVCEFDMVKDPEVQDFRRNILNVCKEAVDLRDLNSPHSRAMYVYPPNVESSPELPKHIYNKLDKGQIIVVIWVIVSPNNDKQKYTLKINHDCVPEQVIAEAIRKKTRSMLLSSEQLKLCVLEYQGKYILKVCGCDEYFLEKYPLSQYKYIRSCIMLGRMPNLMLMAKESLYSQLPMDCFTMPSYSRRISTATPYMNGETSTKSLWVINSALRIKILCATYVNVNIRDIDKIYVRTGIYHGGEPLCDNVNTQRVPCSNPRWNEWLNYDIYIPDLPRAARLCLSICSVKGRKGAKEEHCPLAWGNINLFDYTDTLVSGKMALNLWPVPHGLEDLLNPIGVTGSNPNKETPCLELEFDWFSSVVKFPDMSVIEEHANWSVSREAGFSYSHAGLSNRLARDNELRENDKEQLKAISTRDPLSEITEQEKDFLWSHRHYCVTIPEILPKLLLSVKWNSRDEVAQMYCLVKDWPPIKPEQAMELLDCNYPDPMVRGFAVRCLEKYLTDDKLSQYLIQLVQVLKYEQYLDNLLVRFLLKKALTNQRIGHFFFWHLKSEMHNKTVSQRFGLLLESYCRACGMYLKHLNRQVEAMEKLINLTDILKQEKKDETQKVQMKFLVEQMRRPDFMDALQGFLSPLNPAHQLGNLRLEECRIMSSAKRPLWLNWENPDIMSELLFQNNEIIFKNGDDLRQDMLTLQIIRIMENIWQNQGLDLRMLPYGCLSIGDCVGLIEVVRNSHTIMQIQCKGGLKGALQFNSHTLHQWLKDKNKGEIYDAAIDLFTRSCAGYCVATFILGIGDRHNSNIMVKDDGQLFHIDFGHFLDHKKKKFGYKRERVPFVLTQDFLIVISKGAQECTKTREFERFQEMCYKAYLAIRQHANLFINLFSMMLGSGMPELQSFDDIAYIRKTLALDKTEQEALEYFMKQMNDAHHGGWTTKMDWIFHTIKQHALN
Chain of Dual specificity protein kinase CLK2 (P49760 whole entry): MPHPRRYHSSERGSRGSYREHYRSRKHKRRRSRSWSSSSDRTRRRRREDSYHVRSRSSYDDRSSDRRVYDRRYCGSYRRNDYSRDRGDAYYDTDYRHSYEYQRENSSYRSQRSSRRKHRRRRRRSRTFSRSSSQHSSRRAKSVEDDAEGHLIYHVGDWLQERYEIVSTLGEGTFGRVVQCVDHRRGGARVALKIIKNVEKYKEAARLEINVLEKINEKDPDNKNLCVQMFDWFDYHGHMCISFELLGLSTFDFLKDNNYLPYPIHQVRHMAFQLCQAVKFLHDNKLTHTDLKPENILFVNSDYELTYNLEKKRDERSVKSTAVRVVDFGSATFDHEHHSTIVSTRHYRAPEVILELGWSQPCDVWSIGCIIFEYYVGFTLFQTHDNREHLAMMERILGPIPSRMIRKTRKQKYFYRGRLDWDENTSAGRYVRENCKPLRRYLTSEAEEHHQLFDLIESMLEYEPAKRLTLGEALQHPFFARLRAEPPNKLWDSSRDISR
Chain of Serine/threonine-protein kinase MARK2 (Homo sapiens) (Q7KZI7 whole entry): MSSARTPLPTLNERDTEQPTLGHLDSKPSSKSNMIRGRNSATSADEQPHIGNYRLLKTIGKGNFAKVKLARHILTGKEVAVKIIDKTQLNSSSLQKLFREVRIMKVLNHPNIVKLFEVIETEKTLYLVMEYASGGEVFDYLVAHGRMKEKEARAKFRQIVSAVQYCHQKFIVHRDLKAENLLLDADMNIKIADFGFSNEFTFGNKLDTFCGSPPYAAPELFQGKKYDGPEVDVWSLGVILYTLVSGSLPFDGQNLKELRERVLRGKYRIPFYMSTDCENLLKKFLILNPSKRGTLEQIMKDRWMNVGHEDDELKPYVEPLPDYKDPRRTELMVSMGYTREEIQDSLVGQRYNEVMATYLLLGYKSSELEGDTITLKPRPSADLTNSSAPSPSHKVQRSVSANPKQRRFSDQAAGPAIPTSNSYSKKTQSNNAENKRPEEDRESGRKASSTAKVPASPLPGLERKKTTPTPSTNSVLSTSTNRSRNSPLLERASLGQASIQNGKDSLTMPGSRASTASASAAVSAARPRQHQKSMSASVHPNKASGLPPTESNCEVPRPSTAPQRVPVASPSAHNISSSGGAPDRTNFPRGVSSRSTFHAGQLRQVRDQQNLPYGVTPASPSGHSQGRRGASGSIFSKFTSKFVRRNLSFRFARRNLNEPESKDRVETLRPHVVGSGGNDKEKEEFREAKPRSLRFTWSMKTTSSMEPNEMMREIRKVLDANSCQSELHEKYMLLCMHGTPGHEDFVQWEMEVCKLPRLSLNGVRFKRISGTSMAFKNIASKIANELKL
Chain of Dual specificity mitogen-activated protein kinase kinase 2 (Homo sapiens) (P36507 whole entry, canonical isoform): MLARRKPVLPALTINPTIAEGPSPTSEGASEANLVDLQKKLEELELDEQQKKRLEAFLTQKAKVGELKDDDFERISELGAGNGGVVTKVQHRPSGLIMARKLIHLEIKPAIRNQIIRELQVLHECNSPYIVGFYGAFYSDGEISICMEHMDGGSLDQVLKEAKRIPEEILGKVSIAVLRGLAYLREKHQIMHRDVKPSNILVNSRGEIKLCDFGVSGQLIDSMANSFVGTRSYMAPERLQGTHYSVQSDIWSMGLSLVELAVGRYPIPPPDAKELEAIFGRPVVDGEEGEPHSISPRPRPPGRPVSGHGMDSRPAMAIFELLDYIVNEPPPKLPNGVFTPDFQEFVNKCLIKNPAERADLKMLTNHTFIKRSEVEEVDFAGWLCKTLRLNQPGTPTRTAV

Consider `C=CC(=O)Nc1cccc(C(=O)Nc2ccc(Nc3cc(-c4[nH]c(SC)nc4C)ccn3)cc2)c1`, for which the % of control in assay [1] (at 1 µM) is 74%; in assay [1] (at 5 µM), 31%; in [2] (at 1 µM) it was 79%; in [2] (at 5 µM), 54%.
As to `Cc1cc([C@@H](C)Nc2ccccc2C(=O)O)c2nc(N3CCOCC3)cc(=O)n2c1` [AZD-6482], the % of control (in assay [3]; on Misshapen-like kinase 1) was 100% each time.
In turn, `CN(C)C/C=C/C(=O)Nc1ccc(C(=O)N2CCCC(Nc3ncc(Cl)c(-c4c[nH]c5ccccc45)n3)C2)cc1` (stereo unspecified) displayed a % of control in assay [4] of 100%.
On to `COCCN1CCC(c2cc(CN(C)C(=O)c3cccc(Oc4ccccc4)c3)ccn2)CC1`, for which the % activity in [5] (at 1 µM) was more than 95%; in assay [5] (at 10 µM), more than 90%.
In assay [6], `COc1cc(Nc2nc(C)cc(-c3cnn4nc(OC)ccc34)n2)cc(C(F)(F)F)c1` returned a % of control of 77%.
`CC[C@@H](Nc1c(C#N)c(-c2ccc(-c3cccc(C)c3F)cc2)nc2cnccc12)C(=O)O` [BAY-091] had a % of inhibition in [7] of 30.9%.
With `CN(C)CC#Cc1ccc2[nH]c3c(c2c1)-c1nc(N)ncc1CCC3`, in [8], 290 nM corresponded to half-maximal inhibition (IC50).
On to `C=CC(=O)Nc1cc(-n2c(=O)ccc3cnc4ccc(-c5ccc(NS(C)(=O)=O)cc5)cc4c32)ccc1C`, for which the % of control in assay [9] (at 1 µM) and in [9] (at 10 µM) was 100% throughout.
On to `O=C(NOC[C@H](O)CO)c1ccc(F)c(F)c1Nc1ccc(I)cc1F`, for which the % of control in [10] was found to be 100%.
With `CC[C@@H]1[C@H](F)C(=O)N[C@@H]1COc1nccc2cc(C(N)=O)c(OC)cc12` [ZIMLOVISERTIB], the % of inhibition in assay [11] was determined as 5.09%; in assay [12], 15.4%.
Consider `COc1cc(N(C)c2ccnc3ccc(C(F)(F)F)cc23)cc(OC)c1OC`, for which the % binding in assay [13] was determined as 94%; in assay [14] it was 88%.
Consider `N#Cc1cccc(-c2c[nH]c3ncnc(N4CCOCC4)c23)c1`, for which the % of inhibition in [15] amounted to 29%.
On to `C=CC(=O)Nc1ccc(C(=O)Nc2[nH]nc3c2CN(C(=O)N[C@H](CN(C)C)c2ccccc2)C3(C)C)cc1`, for which the % of engagement in [16] was -19.4%.

(Values after ChEMBL document CHEMBL5465560, “Selectivity Literature for EUbOPEN Chemogenomic Library” (2024).)
